Measurements published in patent US20250304620A1, “ANTIMICROBIAL PEPTIDE AND APPLICATION THEREOF” (priority 2023, published 2025).
Values after ≈ are worked out from the molar mass of the structure shown. Non-standard residues stand in square brackets, D forms with d. Residues, ends and D or L forms follow the SMILES beside them. Phe(4-CF3) = N[C@@H](Cc1ccc(C(F)(F)F)cc1)C(=O)O; Phe(3,4-F2) = N[C@@H](Cc1ccc(F)c(F)c1)C(=O)O; Phe(4-Br) = N[C@@H](Cc1ccc(Br)cc1)C(=O)O; Phe(4-F) = N[C@@H](Cc1ccc(F)cc1)C(=O)O; 2Nal = N[C@@H](Cc1ccc2ccccc2c1)C(=O)O; hLeu = CC(C)CC[C@H](N)C(=O)O; Nle = CCCC[C@H](N)C(=O)O

Key:
rabbit red blood cells = type: cell-based; conditions: red cells of rabbit, 1 h
Experimental: Fresh rabbit blood ([…]) was collected and centrifuged at 500 g for 5 min, a supernatant was discarded, and red blood cells were repeatedly washed with phosphate-buffered saline (PBS, 0.01 M, pH 7.4) until the supernatant was clear. The red blood cells (RBCs) were resuspended to 10 mL, and diluted 25-fold with PBS (0.01 M, pH 7.4) to prepare a red blood cell suspension with a concentration of about 2×10^8 RBC/mL. The AMPs were subjected to gradient dilution with normal saline (0.85%, w/v, NaCl) according to a multiple dilution method, final concentrations of the SMPs were 1.95, 3.9, 7.8, 15.6, 31.3, 62.5, 125, 250, 500, 1000, and 2000 μg/mL. 100 μl of polypeptide solution was taken and added to a 96-well plate with 5 replicates for each concentration; 100 μl of rabbit blood with a red blood cell count of about 2×10^8 RBC/mL was then added to each well, the plate was incubated at 37° C. for 1 h, centrifuged at 500 g for 5 min, 100 μl of supernatant was taken and transferred to a new 96-well plate, and an optical density (OD) at a wavelength of 541 nm was measured using a microplate reader. Triton X-100 (10 mg/mL as a starting concentration, two-fold gradient dilution) was used as a positive control group. A hemolysis rate was calculated using the following formula: Hemolysis rate (%)=[(OD541 of experimental group-OD541 of negative control group)/(OD541 of positive control group−OD541 of negative control group)]×100% Specific results of the hemolysis test are shown in Table 6. Minimum hemolytic concentration (MHC): a lowest drug concentration that can cause 10% hemolysis.

[1] = test system: Staphylococcus aureus (NRS 384); test: microbe, parasite or virus in culture; type: cell-based; conditions: NRS 384
Description: According to the Standards of Clinical and Laboratory Standards Institute (CLSI) of the USA for antimicrobial drug susceptibility test operation standards, a micronutrient serial twofold dilution method was used to determine minimum inhibitory concentrations (MICs) of all 60 peptides (S/N: LV-1˜LV-60) against Staphylococcus aureus (NRS 384). The experiment was repeated 5 times in parallel. […] An antibacterial drug Levofloxacin and an AMP Cbf-K16 (sequence of Cbf-K16: […]) were used as positive controls to evaluate the antibacterial effect of the antimicrobial peptides on Staphylococcus aureus (NRS 384).

MIC against Staphylococcus aureus (NRS 384) [1] | SMILES | MHC (minimum hemolytic concentration, lowest concentration causing 10% hemolysis) (rabbit red blood cells)
8 mg/L (≈ 4.94 µM) | CC(=O)N[C@@H](CCCCN)C(=O)N[C@@H](CCCCN)C(=O)N[C@@H](CC(C)C)C(=O)N[C@@H](CC(C)C)C(=O)N[C@@H](Cc1ccc2ccccc2c1)C(=O)N[C@@H](CCCNC(=N)N)C(=O)N[C@@H](CC(C)C)C(=O)N[C@@H](CCCCN)C(=O)N[C@@H](Cc1ccc2ccccc2c1)C(=O)N[C@@H](CCCNC(=N)N)C(=O)N[C@@H](CCCCN)C(N)=O [LV-49] (Ac-KKLL[2Nal]RLK[2Nal]RK-NH2) | >1000 µg/mL
4 mg/L (≈ 2.43 µM) | CC(=O)N[C@@H](CCCNC(=N)N)C(=O)N[C@@H](CCCCN)C(=O)N[C@@H](CC(C)C)C(=O)N[C@@H](CC(C)C)C(=O)N[C@@H](Cc1ccc2ccccc2c1)C(=O)N[C@@H](CCCNC(=N)N)C(=O)N[C@@H](CC(C)C)C(=O)N[C@@H](CCCCN)C(=O)N[C@@H](Cc1ccc2ccccc2c1)C(=O)N[C@@H](CCCNC(=N)N)C(=O)N[C@@H](CCCCN)C(N)=O [LV-50] (Ac-RKLL[2Nal]RLK[2Nal]RK-NH2) | >1000 µg/mL
4 mg/L (≈ 2.39 µM) | CC(=O)N[C@@H](CCCNC(=N)N)C(=O)N[C@@H](CCCNC(=N)N)C(=O)N[C@@H](CC(C)C)C(=O)N[C@@H](CC(C)C)C(=O)N[C@@H](Cc1ccc2ccccc2c1)C(=O)N[C@@H](CCCNC(=N)N)C(=O)N[C@@H](CC(C)C)C(=O)N[C@@H](CCCCN)C(=O)N[C@@H](Cc1ccc2ccccc2c1)C(=O)N[C@@H](CCCNC(=N)N)C(=O)N[C@@H](CCCCN)C(N)=O [LV-51] (Ac-RRLL[2Nal]RLK[2Nal]RK-NH2) | >1000 µg/mL
4 mg/L (≈ 2.52 µM) | CC(=O)N[C@@H](CCCCN)C(=O)N[C@@H](CCCCN)C(=O)N[C@@H](CC(C)C)C(=O)N[C@@H](CC(C)C)C(=O)N[C@@H](Cc1ccc(F)c(F)c1)C(=O)N[C@@H](CCCNC(=N)N)C(=O)N[C@@H](CC(C)C)C(=O)N[C@@H](CCCCN)C(=O)N[C@@H](Cc1ccc(F)c(F)c1)C(=O)N[C@@H](CCCNC(=N)N)C(=O)N[C@@H](CCCCN)C(N)=O [LV-55] (Ac-KKLL[Phe(3,4-F2)]RLK[Phe(3,4-F2)]RK-NH2) | >1000 µg/mL
8 mg/L (≈ 4.78 µM) | CC(=O)N[C@@H](CCCNC(=N)N)C(=O)N[C@@H](CCCCN)C(=O)N[C@@H](CC(C)C)C(=O)N[C@@H](CC(C)C)C(=O)N[C@@H](Cc1ccc2ccccc2c1)C(=O)N[C@@H](CCCNC(=N)N)C(=O)N[C@@H](CC(C)C)C(=O)N[C@@H](CCCCN)C(=O)N[C@@H](Cc1ccc2ccccc2c1)C(=O)N[C@@H](CCCNC(=N)N)C(=O)N[C@@H](CCCNC(=N)N)C(N)=O [LV-52] (Ac-RKLL[2Nal]RLK[2Nal]RR-NH2) | >1000 µg/mL
4 mg/L (≈ 2.47 µM) | CC(=O)N[C@@H](CCCCN)C(=O)N[C@@H](CCCNC(=N)N)C(=O)N[C@@H](CC(C)C)C(=O)N[C@@H](CC(C)C)C(=O)N[C@@H](Cc1ccc2ccccc2c1)C(=O)N[C@@H](CCCCN)C(=O)N[C@@H](CC(C)C)C(=O)N[C@@H](CCCCN)C(=O)N[C@@H](Cc1ccc2ccccc2c1)C(=O)N[C@@H](CCCCN)C(=O)N[C@@H](CCCNC(=N)N)C(N)=O [LV-53] (Ac-KRLL[2Nal]KLK[2Nal]KR-NH2) | >1000 µg/mL

The next lines start with the compound.

SMILES | MIC against Staphylococcus aureus (NRS 384) [1] | MHC (minimum hemolytic concentration, lowest concentration causing 10% hemolysis) (rabbit red blood cells)
CC(=O)N[C@@H](CCCCN)C(=O)N[C@@H](CCCCN)C(=O)N[C@@H](CC(C)C)C(=O)N[C@@H](CC(C)C)C(=O)N[C@@H](Cc1ccc(Br)cc1)C(=O)N[C@@H](CCCNC(=N)N)C(=O)N[C@@H](CC(C)C)C(=O)N[C@@H](CCCCN)C(=O)N[C@@H](Cc1ccc(Br)cc1)C(=O)N[C@@H](CCCNC(=N)N)C(=O)N[C@@H](CCCCN)C(N)=O [LV-40] (Ac-KKLL[Phe(4-Br)]RLK[Phe(4-Br)]RK-NH2) | 4 mg/L (≈ 2.39 µM) | >1000 µg/mL
CC(=O)N[C@@H](CCCNC(=N)N)C(=O)N[C@@H](CCCCN)C(=O)N[C@@H](CC(C)C)C(=O)N[C@@H](CC(C)C)C(=O)N[C@@H](Cc1ccc(F)cc1)C(=O)N[C@@H](CCCCN)C(=O)N[C@@H](CC(C)C)C(=O)N[C@@H](CCCCN)C(=O)N[C@@H](Cc1ccc(F)cc1)C(=O)N[C@@H](CCCCN)C(=O)N[C@@H](CCCNC(=N)N)C(N)=O [LV-35] (Ac-RKLL[Phe(4-F)]KLK[Phe(4-F)]KR-NH2) | 8 mg/L (≈ 5.15 µM) | >1000 µg/mL
CC(=O)N[C@@H](CCCNC(=N)N)C(=O)N[C@@H](CCCCN)C(=O)N[C@@H](CC(C)C)C(=O)N[C@@H](CC(C)C)C(=O)N[C@@H](Cc1ccc2ccccc2c1)C(=O)N[C@@H](CCCNC(=N)N)C(=O)N[C@@H](CC(C)C)C(=O)N[C@@H](CCCCN)C(=O)N[C@@H](Cc1ccccc1)C(=O)N[C@@H](CCCNC(=N)N)C(=O)N[C@@H](CCCCN)C(N)=O [LV-34] (Ac-RKLL[2Nal]RLKFRK-NH2) | 4 mg/L (≈ 2.51 µM) | >1000 µg/mL
CC(=O)N[C@@H](CCCNC(=N)N)C(=O)N[C@@H](CCCCN)C(=O)N[C@@H](CC(C)C)C(=O)N[C@@H](CC(C)C)C(=O)N[C@@H](Cc1ccc(C(F)(F)F)cc1)C(=O)N[C@@H](CCCCN)C(=O)N[C@@H](CC(C)C)C(=O)N[C@@H](CCCCN)C(=O)N[C@@H](Cc1ccc(C(F)(F)F)cc1)C(=O)N[C@@H](CCCCN)C(=O)N[C@@H](CCCNC(=N)N)C(N)=O [LV-39] (Ac-RKLL[Phe(4-CF3)]KLK[Phe(4-CF3)]KR-NH2) | 8 mg/L (≈ 4.84 µM) | >1000 µg/mL
CC(=O)N[C@@H](CCCNC(=N)N)C(=O)N[C@@H](CCCCN)C(=O)N[C@@H](CC(C)C)C(=O)N[C@@H](CC(C)C)C(=O)N[C@@H](Cc1ccccc1)C(=O)N[C@@H](CCCNC(=N)N)C(=O)N[C@@H](CC(C)C)C(=O)N[C@@H](CCCCN)C(=O)N[C@@H](Cc1ccc2ccccc2c1)C(=O)N[C@@H](CCCNC(=N)N)C(=O)N[C@@H](CCCCN)C(N)=O [LV-33] (Ac-RKLLFRLK[2Nal]RK-NH2) | 8 mg/L (≈ 5.01 µM) | >1000 µg/mL
CC(=O)N[C@@H](CCCNC(=N)N)C(=O)N[C@@H](CCCCN)C(=O)N[C@H](C(=O)N[C@H](C(=O)N[C@@H](Cc1ccc2ccccc2c1)C(=O)N[C@@H](CCCNC(=N)N)C(=O)N[C@H](C(=O)N[C@@H](CCCCN)C(=O)N[C@@H](Cc1ccc2ccccc2c1)C(=O)N[C@@H](CCCNC(=N)N)C(=O)N[C@@H](CCCCN)C(N)=O)C(C)C)C(C)C)C(C)C [LV-46] (Ac-RKVV[2Nal]RVK[2Nal]RK-NH2) | 4 mg/L (≈ 2.49 µM) | >1000 µg/mL
CC(=O)N[C@@H](CCCNC(=N)N)C(=O)N[C@@H](CCCCN)C(=O)N[C@@H](CC(C)C)C(=O)N[C@@H](CC(C)C)C(=O)N[C@@H](Cc1ccc(F)c(F)c1)C(=O)N[C@@H](CCCCN)C(=O)N[C@@H](CC(C)C)C(=O)N[C@@H](CCCCN)C(=O)N[C@@H](Cc1ccc(F)c(F)c1)C(=O)N[C@@H](CCCCN)C(=O)N[C@@H](CCCNC(=N)N)C(N)=O [LV-36] (Ac-RKLL[Phe(3,4-F2)]KLK[Phe(3,4-F2)]KR-NH2) | 4 mg/L (≈ 2.52 µM) | >1000 µg/mL
CCCC[C@H](NC(=O)[C@H](CCCCN)NC(=O)[C@H](CCCNC(=N)N)NC(C)=O)C(=O)N[C@@H](CCCC)C(=O)N[C@@H](Cc1ccc2ccccc2c1)C(=O)N[C@@H](CCCNC(=N)N)C(=O)N[C@@H](CCCC)C(=O)N[C@@H](CCCCN)C(=O)N[C@@H](Cc1ccc2ccccc2c1)C(=O)N[C@@H](CCCNC(=N)N)C(=O)N[C@@H](CCCCN)C(N)=O [LV-42] (Ac-RK[Nle][Nle][2Nal]R[Nle]K[2Nal]RK-NH2) | 8 mg/L (≈ 4.86 µM) | >1000 µg/mL
CC(=O)N[C@@H](CCCNC(=N)N)C(=O)N[C@@H](CCCCN)C(=O)N[C@@H](CCC(C)C)C(=O)N[C@@H](CCC(C)C)C(=O)N[C@@H](Cc1ccc2ccccc2c1)C(=O)N[C@@H](CCCNC(=N)N)C(=O)N[C@@H](CCC(C)C)C(=O)N[C@@H](CCCCN)C(=O)N[C@@H](Cc1ccc2ccccc2c1)C(=O)N[C@@H](CCCNC(=N)N)C(=O)N[C@@H](CCCCN)C(N)=O [LV-44] (Ac-RK[hLeu][hLeu][2Nal]R[hLeu]K[2Nal]RK-NH2) | 8 mg/L (≈ 4.74 µM) | >1000 µg/mL
